Like-named read-outs stand apart in the source and are kept apart here.
What was measured:
Type in all cases: biochemical
[1] = target: T1, Chk1 (Homo sapiens, UniProt O14757); assay: Chk1 kinase assay, phosphorylation of Chktide (33P-ATP filtration); settings: 0.01 mM ATP, read-out: Chk1 IC50
T1 sequence (O14757 1-476): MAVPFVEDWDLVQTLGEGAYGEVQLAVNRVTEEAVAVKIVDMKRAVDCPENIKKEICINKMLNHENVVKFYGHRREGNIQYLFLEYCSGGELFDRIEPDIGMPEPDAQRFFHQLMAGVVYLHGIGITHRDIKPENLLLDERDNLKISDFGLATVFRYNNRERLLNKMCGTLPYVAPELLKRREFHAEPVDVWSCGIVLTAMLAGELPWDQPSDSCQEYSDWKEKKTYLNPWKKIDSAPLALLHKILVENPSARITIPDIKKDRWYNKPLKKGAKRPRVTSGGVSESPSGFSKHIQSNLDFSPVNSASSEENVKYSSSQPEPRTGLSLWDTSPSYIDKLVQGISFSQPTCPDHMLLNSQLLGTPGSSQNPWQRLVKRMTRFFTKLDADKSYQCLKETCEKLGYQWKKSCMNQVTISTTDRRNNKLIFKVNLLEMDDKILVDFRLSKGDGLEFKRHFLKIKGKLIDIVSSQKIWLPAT
Protocol: Assays for the Chk1 kinase activity were carried out by monitoring the phosphorylation of a synthetic peptide Chktide with the amino acid sequence, […]. The assay mixture containing the inhibitor and Chk1 enzyme was mixed together in a microtiter plate in a final volume of 50 μl and incubated for 40 minutes at 30° C.
The assay mixture contained 0.01 mM unlabeled ATP, 0.5 μCi ^33P-γ-ATP, 30 μM Chktide, 0.1 mg/ml BSA, 50 mM Hepes-NaOH pH 7.5 and 11 nM GST-Chk1 enzyme. The reaction was stopped by adding 50 μl of 50 mM phosphoric acid. 90 μl of the mixture was transferred to a pre-wetted 96-well Multiscreen MAPHNOB filtration plate (Millipore) and filtered on a vacuum manifold. The filter plate was washed with three successive additions of 200 μl 50 mM phosphoric acid and then with 100 μl methanol. The filtration plate was dried for 10 min at 65° C., scintillant added and phosphorylated peptide quantified in a scintillation counter (Trilux, PerkinElmer).

[2] = target: CDK2 enzyme, complexed with cyclin A (Homo sapiens, UniProt P24941); assay: CDK2 cyclin dependent kinase assay, phosphorylation of synthetic peptide […] (33P-ATP filtration); settings: 0.1 mM ATP
Protocol: (§1) The assay mixture containing the inhibitor and CDK2 enzyme, complexed with cyclin A (0.4 U/ml) was mixed together in a microtiter plate in a final volume of 50 μl and incubated for 40 min at 30° C. The assay mixture contained 0.1 mM unlabeled ATP, 0.01 μCi/μl ^33P-γ-ATP, 0.03 mM peptide, 0.1 mg/ml BSA, 7.5 mM magnesium acetate, 50 mM HEPES-NaOH, pH 7.5. The reaction was stopped by adding 50 μl of 50 mM phosphoric acid. 90 μl of the mixture were transferred to a pre-wetted 96-well Multiscreen MAPHNOB filtration plate (Millipore) and filtered on a vacuum manifold. The filter plate was washed with three successive additions of 200 μl 50 mM phosphoric acid and then with 100 μl methanol. The filtration plate was dried for 10 min at 65° C., scintillant added and phosphorylated peptide quantified in a scintillation counter (Trilux, PerkinElmer).
HEPES is N-[2-hydroxyethyl]piperazine-N′-[2-ethanesulfonic acid]. BSA is bovine serum albumin.

[3] = target: T2, PDK1 enzyme (Homo sapiens, UniProt O15530); assay: PDK1 3'-phosphoinositide-dependent kinase assay, phosphorylation of synthetic peptide (33P-ATP filtration); settings: 0.01 mM ATP, read-out: PDK1 IC50
T2 sequence (O15530 1-556): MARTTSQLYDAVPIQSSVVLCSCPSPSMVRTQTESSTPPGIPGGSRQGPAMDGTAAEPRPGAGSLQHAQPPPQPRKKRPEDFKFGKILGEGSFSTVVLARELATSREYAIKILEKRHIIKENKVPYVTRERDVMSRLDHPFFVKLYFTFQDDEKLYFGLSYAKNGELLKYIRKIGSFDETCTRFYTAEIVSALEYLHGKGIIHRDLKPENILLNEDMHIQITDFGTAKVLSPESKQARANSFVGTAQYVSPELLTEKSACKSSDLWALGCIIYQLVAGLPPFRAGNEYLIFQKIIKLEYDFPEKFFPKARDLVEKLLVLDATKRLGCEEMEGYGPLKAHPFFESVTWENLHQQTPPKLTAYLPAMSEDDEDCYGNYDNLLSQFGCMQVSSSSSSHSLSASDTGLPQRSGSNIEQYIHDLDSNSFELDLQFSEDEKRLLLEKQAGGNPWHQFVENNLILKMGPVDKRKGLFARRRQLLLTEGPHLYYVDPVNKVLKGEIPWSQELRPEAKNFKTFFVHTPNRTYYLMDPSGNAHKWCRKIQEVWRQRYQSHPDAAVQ
Protocol: as §1, with “and PDK1 enzyme” for “and CDK2 enzyme, complexed with cyclin A (0.4 U/ml)”, “for 60” for “for 40”, “contained 0.01” for “contained 0.1”, “^33P-γ-ATP, 0.075” for “^33P-γ-ATP, 0.03”, “acetate, 0.05 M Tris.HCl,” for “acetate, 50 mM HEPES-NaOH,”, “pH 7.5, 0.5% 2-mercaptoethanol.” for “pH 7.5.”

NS(=O)(=O)c1ccc(Nc2cc(NC(CCO)c3ccccc3)nc3ncnn23)cc1 (stereo not drawn) [Example 10]
IC50 ([1]; Table 1): > 200 µM | IC50 ([2]; Table 1): 5.74 µM | IC50 ([3]; Table 1): > 200 µM

NS(=O)(=O)c1ccc(Nc2cc(Cl)nc3ncnn23)cc1 [Example 1, 7-(4-Aminosulfonylphenylamino)-5-chlorotriazolol[1,5-a]pyrimidine]
IC50 ([1]; Table 1): > 200 µM | IC50 ([2]; Table 1): 20.1 µM | IC50 ([3]; Table 1): > 200 µM

Cc1cccc(-c2cc(Nc3ccc(N(C)C)cc3)nc3ncnn23)c1 [Example 108]
IC50 ([1]; Table 3): 36.8 µM | IC50 ([2]; Table 3): > 200 µM | IC50 ([3]; Table 3): 66.8 µM

CCN(CC)CCNC(=O)c1ccc(Nc2cc(Cc3cc(OC)ccc3OC)n3ncnc3n2)cc1 [Example 128]
IC50 ([1]; Table 3): 65.8 µM | IC50 ([2]; Table 3): > 200 µM | IC50 ([3]; Table 3): > 200 µM

CCN(CC)CCNC(=O)c1ccc(Nc2cc(-c3ccc4c(c3)OCO4)n3ncnc3n2)cc1 [Example 140]
IC50 ([1]; Table 3): 1 µM | IC50 ([2]; Table 3): > 200 µM | IC50 ([3]; Table 3): 1.8 µM

Fc1cccc(-c2cc(Nc3ccc(N4CCOCC4)cc3)nc3ncnn23)c1 [Example 113]
IC50 ([1]; Table 3): 5.62 µM | IC50 ([2]; Table 3): > 200 µM | IC50 ([3]; Table 3): 46.5 µM

CCOC(=O)c1ccc(Nc2cc(-c3cccc(O)c3)nc3ncnn23)cc1 [Example 50]
IC50 ([1]; Table 1): > 200 µM | IC50 ([2]; Table 1): 31.9 µM | IC50 ([3]; Table 1): > 200 µM

CCN(CC)c1cc(Nc2ccc(S(C)(=O)=O)cc2)n2ncnc2n1 [Example 65]
IC50 ([1]; Table 2): > 200 µM | IC50 ([2]; Table 2): 0.94 µM | IC50 ([3]; Table 2): > 200 µM

Cc1cccc(-c2cc(Nc3ccc(N4CCN(C)CC4)cc3)nc3ncnn23)c1 [Example 109]
IC50 ([1]; Table 3): 6.7 µM | IC50 ([2]; Table 3): > 200 µM | IC50 ([3]; Table 3): 36 µM

NC(=O)c1sccc1Nc1cc(-c2ccsc2)nc2ncnn12 [Example 44]
IC50 ([1]; Table 1): > 200 µM | IC50 ([2]; Table 1): 60.3 µM | IC50 ([3]; Table 1): > 200 µM

CN(C)S(=O)(=O)c1ccc(Nc2cc(-c3cccc(F)c3)n3ncnc3n2)cc1 [Example 129]
IC50 ([1]; Table 3): 12.2 µM | IC50 ([2]; Table 3): > 200 µM | IC50 ([3]; Table 3): 30.6 µM

CCN(CC)CCNC(=O)c1ccc(Nc2cc(Cc3ccccc3OC)n3ncnc3n2)cc1 [Example 125]
IC50 ([1]; Table 3): 37.4 µM | IC50 ([2]; Table 3): > 200 µM | IC50 ([3]; Table 3): > 200 µM

NC(=O)c1ccc(Nc2cc(-c3cccc(OCc4ccccc4)c3)n3ncnc3n2)cc1 [Example 149]
IC50 ([1]; Table 4): 4.12 µM | IC50 ([2]; Table 4): 8.41 µM | IC50 ([3]; Table 4): 2.26 µM

COc1ccc(Br)cc1-c1cc(N[C@H]2CC[C@H](O)CC2)n2ncnc2n1 [Example 16]
IC50 ([1]; Table 1): > 200 µM | IC50 ([2]; Table 1): 48 µM | IC50 ([3]; Table 1): > 200 µM

NS(=O)(=O)c1cccc(Nc2cc(Cl)nc3ncnn23)c1 [Example 52]
IC50 ([1]; Table 1): > 200 µM | IC50 ([2]; Table 1): 40.9 µM | IC50 ([3]; Table 1): > 200 µM

NC(=O)c1ccc(Nc2cc(-c3ccc4ccccc4c3)n3ncnc3n2)cc1 [Example 136]
IC50 ([1]; Table 3): 13.7 µM | IC50 ([2]; Table 3): > 200 µM | IC50 ([3]; Table 3): 92.9 µM

CCN(CC)CCNC(=O)c1ccc(Nc2cc(Cc3ccccc3)n3ncnc3n2)cc1 [Example 124]
IC50 ([1]; Table 3): 15.8 µM | IC50 ([2]; Table 3): > 200 µM | IC50 ([3]; Table 3): > 200 µM

NCCCOc1cccc(-c2cc(Nc3ccc(C(N)=O)cc3)nc3ncnn23)c1 [Example 147]
IC50 ([1]; Table 4): 5.21 µM | IC50 ([2]; Table 4): 71.7 µM | IC50 ([3]; Table 4): 6.13 µM

O=S(=O)(c1ccc(Nc2cc(Cl)nc3ncnn23)cc1)C(F)(F)F [Example 64]
IC50 ([1]; Table 2): > 200 µM | IC50 ([2]; Table 2): 155 µM | IC50 ([3]; Table 2): > 200 µM

NCCOc1cccc(-c2cc(Nc3ccc(C(N)=O)cc3)nc3ncnn23)c1 [Example 151]
IC50 ([1]; Table 4): 3 µM | IC50 ([2]; Table 4): 47.5 µM | IC50 ([3]; Table 4): 0.25 µM

CC(C)C(CO)Nc1cc(Nc2ccc(S(N)(=O)=O)cc2)n2ncnc2n1 (stereo not drawn) [Example 31]
IC50 ([1]; Table 1): > 200 µM | IC50 ([2]; Table 1): 4.91 µM | IC50 ([3]; Table 1): > 200 µM

Cc1cccc(-c2cc(Nc3ccc(S(N)(=O)=O)cc3)n3ncnc3n2)c1 [Example 3, 7-(4-Aminosulfonylphenylamino)-5-(3-methylphenyl)triazolo[1,5-a]pyrimidine]
IC50 ([1]; Table 1): > 200 µM | IC50 ([2]; Table 1): 1.82 µM | IC50 ([3]; Table 1): > 200 µM

CS(=O)(=O)c1ccc(Nc2cc(NC3CCCC3)nc3ncnn23)cc1 [Example 96]
IC50 ([1]; Table 2): > 200 µM | IC50 ([2]; Table 2): 2.23 µM | IC50 ([3]; Table 2): > 200 µM

CS(=O)(=O)c1ccc(Nc2cc(NCC34CC5CC(CC(C5)C3)C4)nc3ncnn23)cc1 [Example 99]
IC50 ([1]; Table 2): > 200 µM | IC50 ([2]; Table 2): 25.7 µM | IC50 ([3]; Table 2): > 200 µM

COc1ccc(Nc2cc(-c3cccc(Cl)c3)nc3ncnn23)cn1 [Example 40]
IC50 ([1]; Table 1): > 200 µM | IC50 ([2]; Table 1): 8.29 µM | IC50 ([3]; Table 1): > 200 µM

CCN(CC)CCNC(=O)c1ccc(Nc2cc(-c3cccc(OCCN)c3)n3ncnc3n2)cc1 [Example 165]
IC50 ([1]; Table 4): 1.4 µM | IC50 ([2]; Table 4): 7.89 µM | IC50 ([3]; Table 4): 0.81 µM

CS(=O)(=O)c1ccc(Nc2cc(NC3C4CC5CC(C4)CC3C5)nc3ncnn23)cc1 (stereo not drawn) [Example 102]
IC50 ([1]; Table 2): 59.4 µM | IC50 ([2]; Table 2): 10.9 µM | IC50 ([3]; Table 2): 3.55 µM

NS(=O)(=O)c1ccc(Nc2cc(NCC3CCCCC3)nc3ncnn23)cc1 [Example 59]
IC50 ([1]; Table 2): 117 µM | IC50 ([2]; Table 2): 3.86 µM | IC50 ([3]; Table 2): 118 µM

CC[C@H](CO)Nc1cc(NCc2ccccc2)n2ncnc2n1 [Example 79]
IC50 ([1]; Table 2): > 200 µM | IC50 ([2]; Table 2): 5.05 µM | IC50 ([3]; Table 2): > 200 µM

NS(=O)(=O)c1ccc(Nc2cc(N3CCCC(CO)C3)nc3ncnn23)cc1 (stereo not drawn) [Example 23]
IC50 ([1]; Table 1): > 200 µM | IC50 ([2]; Table 1): 0.33 µM | IC50 ([3]; Table 1): > 200 µM

Oc1ccccc1-c1cc(Nc2ccc3cn[nH]c3c2)n2ncnc2n1 [Example 60]
IC50 ([1]; Table 2): > 200 µM | IC50 ([2]; Table 2): 1.91 µM | IC50 ([3]; Table 2): > 200 µM

NC(=O)Cc1ccc(Nc2cc(-c3cccc(F)c3)n3ncnc3n2)cc1 [Example 139]
IC50 ([1]; Table 3): 3.76 µM | IC50 ([2]; Table 3): > 200 µM | IC50 ([3]; Table 3): 1.12 µM

NS(=O)(=O)c1ccc(Nc2cc(N[C@H]3CC[C@H](O)CC3)nc3ncnn23)cc1 [Example 68]
IC50 ([1]; Table 2): > 200 µM | IC50 ([2]; Table 2): 7.4 µM | IC50 ([3]; Table 2): > 200 µM

NC(=O)c1cccc(Nc2cc(Cl)nc3ncnn23)c1 [Example 22]
IC50 ([1]; Table 1): > 200 µM | IC50 ([2]; Table 1): 36.7 µM | IC50 ([3]; Table 1): > 200 µM

CC(C)Nc1cc(Nc2ccc(S(N)(=O)=O)cc2)n2ncnc2n1 [Example 9]
IC50 ([1]; Table 1): > 200 µM | IC50 ([2]; Table 1): 0.89 µM | IC50 ([3]; Table 1): > 200 µM
